Laboratory results from patent publication US9169252B2 (BRISTOL-MYERS SQUIBB COMPANY, priority 2014, dated 2015).
pEC50, pIC50: −log10 of the molar value. Read-outs that look alike come from different tables or passages of the source.

Key:
[1] = target: IRAK4 (Homo sapiens (Human), UniProt Q9NWZ3); assay: IRAK4 Inhibition Assay; assay type: biochemical; settings: ATP 500 μM, read-out: IRAK4 IC50
How it was run: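 Mobility-shift readout: fluorescent substrate and phosphoproduct resolved electrophoretically on Caliper LabChip 3000 after EDTA quench (35 mM). Enzyme reaction of IRAK4, substrates and test compound ran 60 min at room temperature.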

[2] = system: TLR2 induced IL-6 in peripheral blood mononuclear cells (PBMCs); assay: PBMC TLR2 Induced IL-6 Assay; assay type: cell-based, human; settings: Homo sapiens, PBMC, IL-6 by ELISA; for pIC50: read-out: Cell IC50; for pEC50: read-out: Cell EC50
How it was run: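 Lipoteichoic acid at 10 µg/ml served as TLR2 stimulus for 5 hours, following a 30-minute compound pretreatment at 37° C. Cells were Ficoll-isolated human PBMCs, 250000 cells/well, cultured in RPMI plus 10% heat-inactivated FCS.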

[3] = human PBMCs, lipoteichoic acid stimulated
[4] = PBMC TLR2 Induced IL-6 Assay, lipoteichoic acid stimulation

Chain of IRAK4 (Q9NWZ3 whole entry, species assumed): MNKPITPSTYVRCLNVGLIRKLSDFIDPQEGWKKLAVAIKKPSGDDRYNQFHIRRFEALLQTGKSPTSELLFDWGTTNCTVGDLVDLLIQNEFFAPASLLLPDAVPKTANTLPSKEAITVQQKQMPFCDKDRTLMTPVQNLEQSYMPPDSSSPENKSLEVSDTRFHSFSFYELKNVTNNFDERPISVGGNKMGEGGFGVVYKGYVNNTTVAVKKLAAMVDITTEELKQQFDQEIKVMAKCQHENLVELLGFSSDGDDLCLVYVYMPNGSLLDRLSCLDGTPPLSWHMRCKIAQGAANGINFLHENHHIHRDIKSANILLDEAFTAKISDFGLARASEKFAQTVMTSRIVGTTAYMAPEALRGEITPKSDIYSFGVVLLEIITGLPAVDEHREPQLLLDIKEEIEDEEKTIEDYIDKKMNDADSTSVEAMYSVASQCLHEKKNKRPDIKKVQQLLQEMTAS

pIC50 ([1]; IRAK4 0.6 nM)	pIC50 ([1]; IRAK4 Inhibition Assay)	SMILES	pIC50 [2, 3]	pEC50 [2, 4]	pIC50 [2, 4]	pEC50 [2, 3]
8.39		C[C@H](F)CNc1cc(-n2ncc3cc(C#N)cnc32)ncc1C(=O)NC[C@@H](F)C(C)(C)O [Example 583]	6.73			
	8.72	CC(C)Nc1cc(-n2cnc3cc(C#N)c(N)nc32)ncc1C(=O)NC[C@@H](F)C(C)(C)O [Example 341]		6.79		
	8.03	CC(=O)N[C@H]1CC[C@H](NC(=O)c2cnc(-n3ccc4cncnc43)cc2NC(C)C)CC1 [Example 84, N-((trans)-4-acetamidocyclohexyl)-4-(isopropylamino)-6-(7H-pyrrolo[2,3-d]pyrimidin-7-yl)nicotinamide]		5.70	5.70	
8.40		CC(C)(O)[C@H](F)CNC(=O)c1cnc(-n2ccc3cc(C#N)cnc32)cc1NCCN1CCOCC1 [Example 480]	6.57			6.77
	8.72	CC(C)(O)[C@H](F)CNC(=O)c1cnc(-n2ncc3cc(Cl)cnc32)cc1Nc1cnn(CC(F)(F)F)c1 [Example 354]			6.94	
7.90		CC(C)(O)[C@H](F)CNC(=O)c1cnc(-n2ncc3cc(F)cnc32)cc1NC1CCOCC1 [Example 562]				6.59
	7.81	CC(C)Nc1cc(-n2ncc3cc(C#N)cnc32)ncc1C(=O)Nc1ccc(O)cn1 [Example 217]		6.30		
8.00		CC(C)Nc1cc(N2CCc3cc(C#N)cnc32)ncc1C(=O)NC[C@@H](F)C(C)(C)O [Example 567]	6.58			6.79
	7.76	CC(C)Nc1cc(-n2ncc3cc(C#N)c(N)nc32)ncc1C(=O)N[C@H](C)C1CC1 [Example 323]			6.21	
	8.59	CC(C)(O)[C@H](F)CNC(=O)c1cnc(-n2cnc3cc(Cl)cnc32)cc1Nc1cnn(CCCF)c1 [Example 370]			7.08	
	8.07	CC(C)Nc1cc(-n2ncc3cc(C#N)cnc32)ncc1C(=O)NCCC1(O)CCN(C2COC2)CC1 [Example 253]			6.44	
	8.49	CC(C)CCNc1cc(-n2ccc3cc(C#N)cnc32)ncc1C(=O)NC[C@@H](F)C(C)(C)O [Example 19, (R)-6-(5-cyano-1H-pyrrolo[2,3-b]pyridin-1-yl)-N-(2-fluoro-3-hydroxy-3-methylbutyl)-4-(isopentylamino) nicotinamide]		6.60		
8.19		CC(C)NC(=O)[C@H]1CC[C@H](Nc2cc(-n3ncc4cc(C#N)cnc43)ncc2C(=O)NC[C@@H](F)C(C)(C)O)CC1 [Example 641]	6.14			
8.80		CC(CCF)Nc1cc(-n2ccc3cc(C#N)cnc32)ncc1C(=O)NC[C@@H](F)C(C)(C)O (single isomer, unassigned) [Example 426]				7.29
8.60		CC(C)(F)[C@H](F)CNC(=O)c1cnc(-n2cnc3cc(C#N)cnc32)cc1Nc1cnn(CC(F)F)c1 [Example 403]	6.83			
	8.33	CC(C)(CO)Nc1cc(-n2ncc3cc(C#N)cnc32)ncc1C(=O)NC[C@@H](F)C(C)(C)O [Example 234]		6.89	5.87	
	7.80	CNC(=O)[C@H]1CC[C@H](NC(=O)c2cnc(-n3ncc4cc(C#N)cnc43)cc2N[C@@H](C)CF)CC1 [Example 122, 6-(5-cyano-1H-pyrazolo[3,4-b]pyridin-1-yl)-4-(((S)-1-fluoropropan-2-yl)amino)-N-((1r,4S)-4-(methylcarbamoyl)cyclohexyl)nicotinamide]		6.30		
	8.03	CCC(O)(CC)[C@H](F)CNC(=O)c1cnc(-n2ncc3cncnc32)cc1NC(C)C [Example 149, (R)—N-(3-ethyl-2-fluoro-3-hydroxypentyl)-4-(isopropylamino)-6-(1H-pyrazolo[3,4-d]pyrimidin-1-yl)nicotinamide]		6.62		
